# PubChem BioAssay (NCI)
#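 Briefly, cells in 96-well plates were exposed to five compound concentrations for 48 h, and endpoints were estimated by linear interpolation. TGI: concentration producing complete growth inhibition.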
# Tested on: DMS 114 small cell lung
# Test: DTP human tumour cell line panel, 48 h
row,SMILES,TGI [µM]
1,COC(=O)[C@@]1(C)/C(=N/NS(=O)(=O)c2ccc(C)cc2)CCC[C@@H]1C,45
2,CN(CCN(C)C(=O)CCn1cc(F)c(=O)[nH]c1=O)C(=O)CCn1cc(F)c(=O)[nH]c1=O,> 100
3,CCOC1c2cc(C(C)C)c(O)c(O)c2[C@@]23CCCC(C)(C)C2C1OC3=O (stereo not given in full),> 100
4,C=CN1C(=O)[C@H](Oc2ccccc2)[C@@H]1c1ccccc1,> 100
5,CS(=O)(=O)c1ccc(-c2cc(-c3ccc(S(C)(=O)=O)cc3)[n+](-c3cc(-c4ccccc4)c([O-])c(-c4ccccc4)c3)c(-c3ccc(S(C)(=O)=O)cc3)c2)cc1,> 100
6,CC(C)=CC1CC(=[N+]=[N-])C(=O)C1(C)C (stereo not given),> 100
7,O=C(CSc1c2ccccc2nc2ccccc12)Nc1ccccc1-c1ccccc1NC(=O)CSc1c2ccccc2nc2ccccc12,46.8
8,O=S(=O)(c1ccccc1)N1N=C2c3ccccc3CCC[C@H]2C1c1ccccc1 (stereo not given in full),> 100

# Tested on: UO-31 renal
# Test: DTP human tumour cell line panel, 48 h
row,SMILES,TGI [µM]
1,COC(=O)[C@@]1(C)/C(=N/NS(=O)(=O)c2ccc(C)cc2)CCC[C@@H]1C,> 100
2,CN(CCN(C)C(=O)CCn1cc(F)c(=O)[nH]c1=O)C(=O)CCn1cc(F)c(=O)[nH]c1=O,> 100
3,CCOC1c2cc(C(C)C)c(O)c(O)c2[C@@]23CCCC(C)(C)C2C1OC3=O (stereo not given in full),> 100
4,C=CN1C(=O)[C@H](Oc2ccccc2)[C@@H]1c1ccccc1,> 100
5,CS(=O)(=O)c1ccc(-c2cc(-c3ccc(S(C)(=O)=O)cc3)[n+](-c3cc(-c4ccccc4)c([O-])c(-c4ccccc4)c3)c(-c3ccc(S(C)(=O)=O)cc3)c2)cc1,> 100
6,CC(C)=CC1CC(=[N+]=[N-])C(=O)C1(C)C (stereo not given),> 100
7,O=C(CSc1c2ccccc2nc2ccccc12)Nc1ccccc1-c1ccccc1NC(=O)CSc1c2ccccc2nc2ccccc12,> 100
8,O=S(=O)(c1ccccc1)N1N=C2c3ccccc3CCC[C@H]2C1c1ccccc1 (stereo not given in full),> 100

# Tested on: COLO 205 colon
# Test: DTP human tumour cell line panel, 48 h
row,SMILES,TGI [µM]
1,COC(=O)[C@@]1(C)/C(=N/NS(=O)(=O)c2ccc(C)cc2)CCC[C@@H]1C,> 100
2,CN(CCN(C)C(=O)CCn1cc(F)c(=O)[nH]c1=O)C(=O)CCn1cc(F)c(=O)[nH]c1=O,> 100
3,CCOC1c2cc(C(C)C)c(O)c(O)c2[C@@]23CCCC(C)(C)C2C1OC3=O (stereo not given in full),> 100
4,CS(=O)(=O)c1ccc(-c2cc(-c3ccc(S(C)(=O)=O)cc3)[n+](-c3cc(-c4ccccc4)c([O-])c(-c4ccccc4)c3)c(-c3ccc(S(C)(=O)=O)cc3)c2)cc1,> 100
5,CC(C)=CC1CC(=[N+]=[N-])C(=O)C1(C)C (stereo not given),> 100
6,O=C(CSc1c2ccccc2nc2ccccc12)Nc1ccccc1-c1ccccc1NC(=O)CSc1c2ccccc2nc2ccccc12,> 75
7,O=S(=O)(c1ccccc1)N1N=C2c3ccccc3CCC[C@H]2C1c1ccccc1 (stereo not given in full),> 100

# Tested on: SR leukemia
# Test: DTP human tumour cell line panel, 48 h
row,SMILES,TGI [µM]
1,COC(=O)[C@@]1(C)/C(=N/NS(=O)(=O)c2ccc(C)cc2)CCC[C@@H]1C,43.6
2,CN(CCN(C)C(=O)CCn1cc(F)c(=O)[nH]c1=O)C(=O)CCn1cc(F)c(=O)[nH]c1=O,> 100
3,CCOC1c2cc(C(C)C)c(O)c(O)c2[C@@]23CCCC(C)(C)C2C1OC3=O (stereo not given in full),> 100
4,C=CN1C(=O)[C@H](Oc2ccccc2)[C@@H]1c1ccccc1,> 100
5,CS(=O)(=O)c1ccc(-c2cc(-c3ccc(S(C)(=O)=O)cc3)[n+](-c3cc(-c4ccccc4)c([O-])c(-c4ccccc4)c3)c(-c3ccc(S(C)(=O)=O)cc3)c2)cc1,> 100
6,CC(C)=CC1CC(=[N+]=[N-])C(=O)C1(C)C (stereo not given),44.4
7,O=C(CSc1c2ccccc2nc2ccccc12)Nc1ccccc1-c1ccccc1NC(=O)CSc1c2ccccc2nc2ccccc12,> 31.6
8,O=S(=O)(c1ccccc1)N1N=C2c3ccccc3CCC[C@H]2C1c1ccccc1 (stereo not given in full),> 100

# Tested on: SK-MEL-28 melanoma
# Test: DTP human tumour cell line panel, 48 h
row,SMILES,TGI [µM]
1,COC(=O)[C@@]1(C)/C(=N/NS(=O)(=O)c2ccc(C)cc2)CCC[C@@H]1C,> 100
2,CN(CCN(C)C(=O)CCn1cc(F)c(=O)[nH]c1=O)C(=O)CCn1cc(F)c(=O)[nH]c1=O,> 100
3,CCOC1c2cc(C(C)C)c(O)c(O)c2[C@@]23CCCC(C)(C)C2C1OC3=O (stereo not given in full),> 100
4,C=CN1C(=O)[C@H](Oc2ccccc2)[C@@H]1c1ccccc1,> 100
5,CS(=O)(=O)c1ccc(-c2cc(-c3ccc(S(C)(=O)=O)cc3)[n+](-c3cc(-c4ccccc4)c([O-])c(-c4ccccc4)c3)c(-c3ccc(S(C)(=O)=O)cc3)c2)cc1,> 100
6,CC(C)=CC1CC(=[N+]=[N-])C(=O)C1(C)C (stereo not given),> 100
7,O=C(CSc1c2ccccc2nc2ccccc12)Nc1ccccc1-c1ccccc1NC(=O)CSc1c2ccccc2nc2ccccc12,52
8,O=S(=O)(c1ccccc1)N1N=C2c3ccccc3CCC[C@H]2C1c1ccccc1 (stereo not given in full),> 100

# Tested on: HCT-15 colon
# Test: DTP human tumour cell line panel, 48 h
row,SMILES,TGI [µM]
1,COC(=O)[C@@]1(C)/C(=N/NS(=O)(=O)c2ccc(C)cc2)CCC[C@@H]1C,31.9
2,CN(CCN(C)C(=O)CCn1cc(F)c(=O)[nH]c1=O)C(=O)CCn1cc(F)c(=O)[nH]c1=O,> 100
3,CCOC1c2cc(C(C)C)c(O)c(O)c2[C@@]23CCCC(C)(C)C2C1OC3=O (stereo not given in full),> 100
4,C=CN1C(=O)[C@H](Oc2ccccc2)[C@@H]1c1ccccc1,> 100
5,CS(=O)(=O)c1ccc(-c2cc(-c3ccc(S(C)(=O)=O)cc3)[n+](-c3cc(-c4ccccc4)c([O-])c(-c4ccccc4)c3)c(-c3ccc(S(C)(=O)=O)cc3)c2)cc1,> 100
6,CC(C)=CC1CC(=[N+]=[N-])C(=O)C1(C)C (stereo not given),> 100
7,O=C(CSc1c2ccccc2nc2ccccc12)Nc1ccccc1-c1ccccc1NC(=O)CSc1c2ccccc2nc2ccccc12,66.6
8,O=S(=O)(c1ccccc1)N1N=C2c3ccccc3CCC[C@H]2C1c1ccccc1 (stereo not given in full),> 100

# Tested on: KM12 colon
# Test: DTP human tumour cell line panel, 48 h
row,SMILES,TGI [µM]
1,COC(=O)[C@@]1(C)/C(=N/NS(=O)(=O)c2ccc(C)cc2)CCC[C@@H]1C,> 100
2,CN(CCN(C)C(=O)CCn1cc(F)c(=O)[nH]c1=O)C(=O)CCn1cc(F)c(=O)[nH]c1=O,> 100
3,C=CN1C(=O)[C@H](Oc2ccccc2)[C@@H]1c1ccccc1,> 100
4,CS(=O)(=O)c1ccc(-c2cc(-c3ccc(S(C)(=O)=O)cc3)[n+](-c3cc(-c4ccccc4)c([O-])c(-c4ccccc4)c3)c(-c3ccc(S(C)(=O)=O)cc3)c2)cc1,> 100
5,CC(C)=CC1CC(=[N+]=[N-])C(=O)C1(C)C (stereo not given),> 100
6,O=C(CSc1c2ccccc2nc2ccccc12)Nc1ccccc1-c1ccccc1NC(=O)CSc1c2ccccc2nc2ccccc12,> 62
7,O=S(=O)(c1ccccc1)N1N=C2c3ccccc3CCC[C@H]2C1c1ccccc1 (stereo not given in full),> 100

# Tested on: RXF 393 renal
# Test: DTP human tumour cell line panel, 48 h
row,SMILES,TGI [µM]
1,COC(=O)[C@@]1(C)/C(=N/NS(=O)(=O)c2ccc(C)cc2)CCC[C@@H]1C,> 100
2,CN(CCN(C)C(=O)CCn1cc(F)c(=O)[nH]c1=O)C(=O)CCn1cc(F)c(=O)[nH]c1=O,> 100
3,CCOC1c2cc(C(C)C)c(O)c(O)c2[C@@]23CCCC(C)(C)C2C1OC3=O (stereo not given in full),> 100
4,C=CN1C(=O)[C@H](Oc2ccccc2)[C@@H]1c1ccccc1,52.5
5,CS(=O)(=O)c1ccc(-c2cc(-c3ccc(S(C)(=O)=O)cc3)[n+](-c3cc(-c4ccccc4)c([O-])c(-c4ccccc4)c3)c(-c3ccc(S(C)(=O)=O)cc3)c2)cc1,> 100
6,CC(C)=CC1CC(=[N+]=[N-])C(=O)C1(C)C (stereo not given),> 31.6
7,O=C(CSc1c2ccccc2nc2ccccc12)Nc1ccccc1-c1ccccc1NC(=O)CSc1c2ccccc2nc2ccccc12,52
8,O=S(=O)(c1ccccc1)N1N=C2c3ccccc3CCC[C@H]2C1c1ccccc1 (stereo not given in full),> 100

# Tested on: SNB-19 CNS
# Test: DTP human tumour cell line panel, 48 h
row,SMILES,TGI [µM]
1,COC(=O)[C@@]1(C)/C(=N/NS(=O)(=O)c2ccc(C)cc2)CCC[C@@H]1C,> 100
2,CN(CCN(C)C(=O)CCn1cc(F)c(=O)[nH]c1=O)C(=O)CCn1cc(F)c(=O)[nH]c1=O,> 100
3,CCOC1c2cc(C(C)C)c(O)c(O)c2[C@@]23CCCC(C)(C)C2C1OC3=O (stereo not given in full),> 100
4,C=CN1C(=O)[C@H](Oc2ccccc2)[C@@H]1c1ccccc1,> 100
5,CS(=O)(=O)c1ccc(-c2cc(-c3ccc(S(C)(=O)=O)cc3)[n+](-c3cc(-c4ccccc4)c([O-])c(-c4ccccc4)c3)c(-c3ccc(S(C)(=O)=O)cc3)c2)cc1,> 100
6,CC(C)=CC1CC(=[N+]=[N-])C(=O)C1(C)C (stereo not given),> 100
7,O=C(CSc1c2ccccc2nc2ccccc12)Nc1ccccc1-c1ccccc1NC(=O)CSc1c2ccccc2nc2ccccc12,> 61.7
8,O=S(=O)(c1ccccc1)N1N=C2c3ccccc3CCC[C@H]2C1c1ccccc1 (stereo not given in full),> 100
